# Data reported in patent US6875769B2, “Substituted6,6-hetero-bicyclicderivatives” (Pfizer Inc., priority 1997, dated 2005).
row,melting point,SMILES
1,124 to 126 °C,"CCC(CC)Nc1cc(C)nc2c1CCC(=O)N2c1c(C)cc(C)cc1C [Example 12, 5-(1-Ethyl-propylamino)-7-methyl-1-(2,4,6-trimethyl-phenyl)-3,4-dihydro-1H-[1,8]naphthyridin-2-one]"
2,125 to 127 °C,"CCC(CC)Oc1cc(C)nc2c1c(Cl)nc(=O)n2-c1c(C)cc(C)cc1C [Example 17, 4-Chloro-5-(1-ethyl-propoxy)-7-methyl-1-(2,4,6-trimethyl-phenyl)-1H-pyrido[2,3-d]pyrimidin-2-one]"
3,105 to 107 °C,"CCC(CC)Oc1cc(C)nc2c1c(=O)[nH]c(=O)n2-c1c(C)cc(C)cc1C [Example 18, 5-(1-Ethyl-propoxy)-7-methyl-1-(2,4,6-trimethyl-phenyl)-1H-pyrido[2,3-d]pyrimidine-2,4-dione]"
